# “And” between values parts separate entries of the source, which are not always exact repeats. Identical values can stand only once. Non-standard residues stand in square brackets, D forms with d. No end group written: not given here. sY = N[C@@H](Cc1ccc(OS(=O)(=O)O)cc1)C(=O)O
# Assays:
# [1] = system: reactive oxygen species (ROS) production in soybean leaf tissue; assay: ROS activity assay in soybean leaf tissue (luminol/horseradish peroxidase, RLU); format: cell-based; details: for Description of ROS activity results (soybean): observed
# [2] = system: reactive oxygen species (ROS) production in corn tissue; assay: ROS activity assay in corn tissue (luminol/horseradish peroxidase, RLU)
# [3] = system: reactive oxygen species (ROS) production in tomato leaf tissue; assay: ROS activity assay in tomato leaf tissue; format: cell-based
# Procedure: Tomato leaves were excised from 4-week-old plants using a cork borer to generate 4 mm disks. Each disc was cut in half using the edge of a razor blade, and then each disc half was floated on 150 μL of water in a 96-well plate to rest overnight. The next day, the water was removed from each well just prior to polypeptide treatment. The Flg polypeptides as described in Table 66 were added to water to bring them to a final concentration of 5 nM (Table 67) and 100 nM (Table 68) in solution with luminol and HRP before adding to each treatment well. To maintain activity, the polypeptides were stored in small aliquots to avoid multiple freezing and thawing. All dilutions to obtain working concentrations were done in ultrapure water. Polypeptide solutions were stored at −20° C. for short term usage or −80° C. for long term storage. RLU values and relative ROS activity (Tables 67, 68) is reported as the average of 4 measurements.
# corn [4] = assay: Foliar application to corn in growth room, plant height (non-stress, heat and water deficit stress); details: for growth phenotype vs control: foliar (HpaG-like 1 μM, PSKα)
# corn [5] = assay: Seed treatment of corn, field yield trials; format: in vivo
# soybean [6] = assay: Seed treatment of soybean, field yield trials; format: in vivo
# corn [7] = format: in vivo; details: foliar 0.33 Fl. oz/Ac, V5-V8, first year trials, 10 locations
# soybean [8] = assay: Foliar application to soybean, field yield trials; format: in vivo; details: 11 locations
# [9] = Table 33, RLU relative to native Bt.4Q7Flg22 = 100
# [10] = Table 35, single polypeptides and combinations, Bt.4Q7Flg22 = 100
# [11] = mutant versus native Bt.4Q7Flg22
# [12] = mutant versus native Bt.4Q7Flg22, *(predicted)
# [13] = seed treatment on base ST, polypeptide 1.0 μM (cellobiose 1 mM where combined)
substance,measurement,setting,value
A spp.Flg22-B4 (ERLSSGYRINRASDDAAGLAIS),Avg. Activity (%) Soybean (297 R4) 100 nM polypeptide,[1]; [9],133.1%
same,Avg. Activity (%) Soybean (297 R4) 100 nM polypeptide,[1]; [10],106.37%
same,Avg. Activity (%) Corn (5828 YX) 5 nM polypeptide,[2]; [9],78.1%
same,Avg. Activity (%) Corn (5828 YX) 5 nM polypeptide,[2]; [10],53.64%
A.spp.FlgII28: FlgII-28 from Aneurinibacillus sp. XH2 (EIHEMLQRMRELAVQAANGTYSDKDKKA; listed as Aneurinibacillus sp.),ROS response,[3]; 5 nM,equally low ROS response
At. PSKα ([sY]I[sY]TQ; listed as Arabidopsis thaliana),Plant Height (cm) Percentage Change Compared to Control (0.01% surfactant) Stress,"corn [4]; separate replicated trials, stress environment, HpaG-like 1 μM, At. PSKα 100 nM foliar",+6.1%
Bp.Flg22 (TRLSSGKRINSAADDAAGLAIS),Avg. Activity (%) Soybean (297 R4) 100 nM polypeptide,[1]; [9],67.2%
same,Avg. Activity (%) Corn (5828 YX) 5 nM polypeptide,[2]; [9],111.2%
Bt 4Q7Flg 22 (DRLSSGKRINSASDDAAGLAIA; listed as Bacillus thuringiensis),Δ Height (cm),"corn [4]; corn Beck's 5828 YH, 1 μM foliar, 3 to 5 weeks",5.40 cm
same,Δ Height Normalized as a percentage of control height,"corn [4]; corn Beck's 5828 YH, 1 μM foliar, vs water control",+3.7%
DRLSSGKRINNASDDAAGLAIA [SEQ ID NO: 294],Avg. Activity (%) Soybean (297 R4) 100 nM polypeptide,[1]; [9],90.0%
DRLSSGKRINSASDDAAGLQIA (listed as Bacillus thuringiensis) [SEQ ID NO: 572],Description of ROS activity results (soybean),[1]; [11],A20Q mutation: Negative ROS activation
same,Description of ROS activity results (corn),"[2]; mutant versus native Bt.4Q7Flg22, observed",A20Q mutation: Negative ROS activation
DRLSSGKRINSASDDPAGLAIA [Syn05Flg22],% Activity (compared to Syn0Flg22; SEQ ID NO: 578),"[1]; soybean leaf discs, Table 73 data set",100.0%
same,Polypeptide Concentration (nM) for 5 × 10^4 total RLU production,"[1]; soybean leaf discs, from best-fit regression, Table 73 data set",89.8 nM
same,% Activity (compared to unmodified Syn05Flg22 (SEQ ID NO: 578)),[2]; corn leaf slices,100.0%
same,Polypeptide Concentration (nM) for 5 × 10^4 total RLU production,"[2]; corn leaf slices, from best-fit regression",19.5 nM
DRLSSGQRINSASDDAAGLAIA [SEQ ID NO: 579],"Description of ROS activity results (soybean), predicted",[1]; [12],K7Q mutation: Strong reduction in ROS
same,"Description of ROS activity results (corn), predicted",[2]; [12],K7Q mutation: Strong reduction in ROS
EKLSSGFRINRAGDDAAGLAIS (Lysinibacillus macroides) [SEQ ID NO: 584],Avg. Activity (%) Corn (5828 YX) 5 nM polypeptide,"[2]; Table 33, RLU relative to native Bt.4Q7Flg22 = 100, listed as Lm.Flg22-L6",58.7% and 33.7%
EKLSSGQRINSASDDAAGLAIS (listed as Bacillus aryabhattai) [SEQ ID NO: 289],Avg. Activity (%) Soybean (297 R4) 100 nM polypeptide,[1]; [9],42.2%
same,Avg. Activity (%) Corn (5828 YX) 5 nM polypeptide,[2]; [9],27.1%
EKLSSGYKINRASDDAAGLAIS (Lysinibacillus spp.) [SEQ ID NO: 581],Avg. Activity (%) Soybean (297 R4) 100 nM polypeptide,[1]; [9],96.9%
same,Avg. Activity (%) Corn (5828 YX) 5 nM polypeptide,[2]; [9],36.4%
"ESTNILQRMRELAVQSRNDSNSATDREA (listed as Pseudomonas syringae) [Ps.tomato FlgII-28, FlgII-28 from Pseudomonas syringae pv. tomato DC3000]",RLU relative to Bt.4Q7Flg22 at the same concentration,[3]; 5 nM,~31 ×
same,ROS response,[3]; 5 nM,strong ROS response
same,ROS response,[3]; 100 nM,strong ROS response
GKLSSGLRINGASDDAAGLAIS (listed as Paenibacillus sp.) [Pa.Flg22],yield gain vs base seed treatment only,"corn [5]; 1 uM in slurry, 3 hybrids, 8 locations",3.57 Bu/Ac
same,Average Yield Bu/Ac,"corn [5]; seed treatment on base ST, BECK's 5828YX, 1 location, four replicated trials, polypeptide 1.0 μM (cellobiose 1 mM where combined)",39.04 Bu/Ac
same,Average Change in Bu/Ac compared to Untreated Control,"corn [5]; seed treatment on base ST, BECK's 5828YX, polypeptide 1.0 μM (cellobiose 1 mM where combined)",+11.04 Bu/Ac
same,Average Yield Bu/Ac,"soybean [6]; seed treatment on base ST, 1 variety, 1 location, four replicate plots, polypeptide 1.0 μM (cellobiose 1 mM where combined)",41.39 Bu/Ac
same,Average Change in Bu/Ac compared to Untreated Control,soybean [6]; [13],+0.28 Bu/Ac
same,Avg. Activity (%) Soybean (297 R4) 100 nM polypeptide,[1]; [9],88.6%
same,Avg. Activity (%) Corn (5828 YX) 5 nM polypeptide,[2]; [9],116.0%
L spp.Flg22-L2 (EKLSSGLRINRAGDDAAGLAIS),Avg. Activity (%) Soybean (297 R4) 100 nM polypeptide,[1]; [9],128.6%
same,Avg. Activity (%) Soybean (297 R4) 100 nM polypeptide,[1]; [10],138.86%
same,Avg. Activity (%) Corn (5828 YX) 5 nM polypeptide,[2]; [9],104.5%
same,Avg. Activity (%) Corn (5828 YX) 5 nM polypeptide,[2]; [10],113.04%
LRISSGYRINSAADDPAGLAIS (Lysinibacillus spp.) [SEQ ID NO: 582],Avg. Activity (%) Soybean (297 R4) 100 nM polypeptide,[1]; [9],117.9%
same,Avg. Activity (%) Corn (5828 YX) 5 nM polypeptide,[2]; [9],60.1%
LRISTGYRINSAADDPAGLAIS (listed as Lysinibacillus fusiformis) [SEQ ID NO: 583],Avg. Activity (%) Soybean (297 R4) 100 nM polypeptide,[1]; [9],111.6%
same,Avg. Activity (%) Corn (5828 YX) 5 nM polypeptide,[2]; [9],59.3%
LRLSSGYRINSAADDAAGLAIS (listed as Lysinibacillus sp.) [SEQ ID NO: 291],Avg. Activity (%) Soybean (297 R4) 100 nM polypeptide,[1]; [9],64.1%
same,Avg. Activity (%) Corn (5828 YX) 5 nM polypeptide,[2]; [9],26.6%
NQGISEKQLDQLLTQLIMALLQQ (Xanthomonas species) [HpaG-like],growth phenotype vs control,corn [4]; heat and water deficit stress,not stressed environments
same,growth phenotype vs control,corn [4]; non-stressed environment,improved growth phenotype in normal environments
NRLSSGKQINSASDDAAGLAIA (listed as Bacillus manliponensis) [SEQ ID NO: 290],Avg. Activity (%) Soybean (297 R4) 100 nM polypeptide,[1]; [9],74.6%
same,Avg. Activity (%) Corn (5828 YX) 5 nM polypeptide,[2]; [9],106.0%
NRLSSGKRINSAADDAAGLAIA [SEQ ID NO: 295],Avg. Activity (%) Soybean (297 R4) 100 nM polypeptide,[1]; [9],83.0%
same,Avg. Activity (%) Soybean (297 R4) 100 nM polypeptide,[1]; [10],97.59%
same,Avg. Activity (%) Corn (5828 YX) 5 nM polypeptide,[2]; [9],134.7%
same,Avg. Activity (%) Corn (5828 YX) 5 nM polypeptide,[2]; [10],142.53%
NRLSSGKRINTAADDAAGLAIS (listed as Burkholderia ubonensis) [SEQ ID NO: 538],Avg. Activity (%) Soybean (297 R4) 100 nM polypeptide,[1]; [9],91.1%
same,Avg. Activity (%) Corn (5828 YX) 5 nM polypeptide,[2]; [9],92.9%
P spp.Flg22-B6 (GKLSSGLRINGASDDAAGLAIS),Avg. Activity (%) Soybean (297 R4) 100 nM polypeptide,[1]; [9],112.5%
same,Avg. Activity (%) Soybean (297 R4) 100 nM polypeptide,[1]; [10],132.95%
same,Avg. Activity (%) Corn (5828 YX) 5 nM polypeptide,[2]; [9],135.3%
same,Avg. Activity (%) Corn (5828 YX) 5 nM polypeptide,[2]; [10],103.61%
QRLSSGKRINSASDDAAGLAIA (listed as Bacillus thuringiensis) [Bt.4Q7Flg22-Syn03],Description of ROS activity results (soybean),[1]; [11],D1Q mutation: Strong ROS activation in
same,ROS activity compared to native Bt.4Q7Flg22,"[2]; 0.25-100 nM, tissue not given",increased ROS activities
same,ROS-inducing activity among tested polypeptides,[2]; corn (5 nM) and soybean (100 nM),strongest ROS-inducing activity
RI Bt.4Q7Flg22: retro-inverso form of Bt.4Q7Flg22 ([dA][dI][dA][dL]G[dA][dA][dD][dD][dS][dA][dS][dN][dI][dR][dK]G[dS][dS][dL][dR][dD]; listed as Bacillus thuringiensis),average yield increase vs non-treated control,corn [7],11.90 Bu/Ac
same,win rate,corn [7],70%
same,win rate,soybean [8]; R2 foliar 0.33 Fl. oz/Ac,64%
same,average yield change vs non-treated control,"soybean [8]; R2 foliar, Flg22 polypeptides 0.33 Fl. oz/Ac, RHPP 4 Fl. oz/Ac",0.90 Bu/Ac
same,yield advantage,"corn [5]; second study, 12 locations",0.5 Bu/Ac
same,win rate,"soybean [6]; third study, 12 locations",55%
same,yield benefit,"soybean [6]; third study, 12 locations",0.3 Bu/Ac
Syn03Flg22 (QRLSSGKRINSASDDAAGLAIA),Average Change in Bu/Ac compared to Untreated Control,soybean [6]; [13],+2.50 Bu/Ac

# — patent US12268727B2, “Bioactive polypeptides for improvements in plant protection, growth and productivity” (priority 2017, dated 2025)
